Assay results as given in patent publication US20040242503A1 (priority 2000, published 2004).
Like-named read-outs stand apart in the source and are kept apart here. Marks after values point to notes of the source that are not given here. Blank lines part the entries; values can stand above or below the compound they belong to.

Assays:
[1] = Levels of L-DOPA, dopamine, DOPAC and HVA in rat brain and kidney; assay type: in vivo
Description: (§1) Male Wistar rats weighing 170-280 g, kept two per cage under controlled environmental conditions (12 h light/dark cycle and room temperature 24° C.), were used in all experiments. […] The high pressure liquid chromatograph system consisted of a pump (Gilson model 302; Gilson Medical Electronics, […] Bel, France) connected to a manometric module (Gilson model 802 C) and a stainless-steel 5 μm ODS column (Biophase; Bioanalytical Systems, West Lafayette, Ind.) of 25 cm length; samples were injected by means of an automatic sample injector (Gilson model 231) connected to a Gilson dilutor (model 401). […] The detection was carried out electrochemically with a glassy carbon electrode, an Ag/AgCl reference electrode and an amperometric detector (Gilson model 141); the detector cell was operated at 0.75 V. The current produced was monitored using the Gilson 712 HPLC software.

LLC-PK1 cells = assay: Apical uptake of L-DOPA in LLC-PK1 cells; assay type: cell-based, porcine
Description: Cell culture LLC-PK1 cells, a porcine-derived proximal renal tubule epithelial cell line which retains several properties of proximal tubular epithelial cells in culture (Hull, R. N., et al., 1976, In Vitro 12; 670-677), were obtained from the American Type Culture Collection (Rockville, Md.). LLC-PK1 cells (ATCC CRL 1392; passages 198-206) and were maintained in a humidified atmosphere of 5% CO2-95% air at 37° C. and grown in Medium 199 (Sigma Chemical Company, St. Louis, Mo., USA) supplemented with 100 U/ml penicillin G, 0.25 μg/ml amphotericin B, 100 μg/ml streptomycin (Sigma), 3% foetal bovine serum (Sigma) and 25 mM N-2-hydroxyethylpiperazine-N'-2-ethanesulfonic acid (HEPES; Sigma). For subculturing, the cells were dissociated with 0.05% trypsin-EDTA, split 1:4 and subcultured in Costar flasks with 75- or 162-cm^2 growth areas (Costar, Badhoevedorp, The Netherlands). […] The cell medium was changed every 2 days, and the cells reached confluence after 3-5 days of incubation. For 24 hours prior to each experiment, the cell medium was free of foetal bovine serum. […] On the day of the experiment, the growth medium was aspirated and the cells washed with Hanks' medium; thereafter, the cell monolayers were preincubated for 15 min in Hanks' medium at 37° C. The Hanks' medium had the following composition (mM): […] Test substances were applied from the apical side only, and were present during the preincubation and incubation periods. During preincubation and incubation, the cells were continuously shaken and maintained at 37° C.

[2] = biological target: T1, aromatic L-amino acid decarboxylase (AADC) (Sus scrofa, UniProt P80041); assay: Decarboxylation of L-DOPA (AADC activity) in LLC-PK1 cells; assay type: cell-based, porcine; details: read-out: inhibition of AADC activity IC50
T1 construct: host or cells: LLC-PK1 cells
T1 sequence (P80041 1-486): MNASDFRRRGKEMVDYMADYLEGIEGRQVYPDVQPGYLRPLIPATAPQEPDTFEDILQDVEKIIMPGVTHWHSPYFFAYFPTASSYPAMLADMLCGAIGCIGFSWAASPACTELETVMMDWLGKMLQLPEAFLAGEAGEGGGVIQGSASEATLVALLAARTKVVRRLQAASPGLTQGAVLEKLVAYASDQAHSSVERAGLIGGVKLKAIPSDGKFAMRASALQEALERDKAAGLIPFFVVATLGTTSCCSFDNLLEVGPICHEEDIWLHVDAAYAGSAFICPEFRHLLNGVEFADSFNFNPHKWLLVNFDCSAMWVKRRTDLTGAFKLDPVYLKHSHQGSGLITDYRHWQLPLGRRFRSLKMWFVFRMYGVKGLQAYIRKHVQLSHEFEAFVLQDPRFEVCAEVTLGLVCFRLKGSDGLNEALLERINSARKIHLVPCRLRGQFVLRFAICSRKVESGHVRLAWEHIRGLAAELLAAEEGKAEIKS
Description: On the day of the experiment, the growth medium was aspirated and the cells (LLC-PK1) washed with Hanks' medium; thereafter, the cell monolayers were preincubated for 15 min in Hanks' medium at 37° C. […] The incubation medium also contained pyridoxal phosphate (120 μM), tolcapone (1 μM) and pargyline (100 μM). […] After preincubation, cells were incubated for 6 min in Hanks' medium with 250 μM LDOPA. The reaction was terminated by the addition of 250 μl of […] perchloric acid. The acidified samples were stored at 4° C. before injection into the high pressure liquid chromatograph for the assay of dopamine.
The high pressure liquid chromatograph system consisted of a pump (Gilson model 302; Gilson Medical Electronics, Villiers le Bel, France) connected to a manometric module (Gilson model 802 C) and a stainless-steel 5 μm ODS column (Biophase; Bioanalytical Systems, West Lafayette, Ind.) of 25 cm length; samples were injected by means of an automatic sample injector (Gilson model 231) connected to a Gilson dilutor (model 401). […] The detection was carried out electrochemically with a glassy carbon electrode, an Ag/AgCl reference electrode and an amperometric detector (Gilson model 141); the detector cell was operated at 0.75 V. The current produced was monitored using the Gilson 712 HPLC software.

[3] = Levels of L-DOPA in plasma of rats; assay type: in vivo, rat; details: oral, 30 min before L-DOPA 12 mg/kg plus benserazide 3 mg/kg
Description: as §1

[4] = biological target: T2, aromatic L-amino acid decarboxylase (AADC) (Rattus norvegicus, UniProt P14173); assay: Assay of AADC in rat tissues (brain, liver, kidney) under Vmax conditions; assay type: in vivo; details: 30 mg/kg
T2 construct: from tissue; host or cells: brain, liver and kidney of male Wistar rats
T2 sequence (P14173 1-480): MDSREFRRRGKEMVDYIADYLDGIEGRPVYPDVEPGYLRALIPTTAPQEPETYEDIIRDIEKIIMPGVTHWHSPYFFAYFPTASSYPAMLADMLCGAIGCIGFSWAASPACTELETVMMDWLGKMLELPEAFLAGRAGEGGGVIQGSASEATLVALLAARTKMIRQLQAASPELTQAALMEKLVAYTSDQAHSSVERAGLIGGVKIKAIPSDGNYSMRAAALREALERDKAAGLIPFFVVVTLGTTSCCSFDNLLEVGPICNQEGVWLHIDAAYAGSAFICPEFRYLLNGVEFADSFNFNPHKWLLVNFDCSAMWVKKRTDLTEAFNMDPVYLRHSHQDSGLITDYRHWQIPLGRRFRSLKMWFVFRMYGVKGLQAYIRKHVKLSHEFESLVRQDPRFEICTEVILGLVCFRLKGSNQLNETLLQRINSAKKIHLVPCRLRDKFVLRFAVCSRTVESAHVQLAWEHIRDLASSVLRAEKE
Description: Male Wistar rats weighing 170-280 g, kept two per cage under controlled environmental conditions (12 h light/dark cycle and room temperature 24° C.), were used in all experiments.
The reaction was stopped by the addition of 500 μl of 2 M perchloric acid and the preparations kept at 4° C. for 60 min. The samples were then centrifuged (200 g, 2 min. 4° C.) and 500 μl aliquots of the supernatant filtered on Spin-X filter tubes (Costar) were used for the assay of dopamine.
Since high doses of benserazide may result in inhibition of AADC in brain (Da Prada, et al., 1987, Eur.

[5] = brain, L-DOPA 12 mg/kg alone, 60 min
[6] = brain, R 0.3 mg/kg 30 min before L 12 mg/kg + B 3 mg/kg, 60 min after L + B
[7] = brain, R 1.0 mg/kg 30 min before L 12 mg/kg + B 3 mg/kg, 60 min after L + B
[8] = brain, R 3.0 mg/kg 30 min before L 12 mg/kg + B 3 mg/kg, 60 min after L + B
[9] = brain, R 10.0 mg/kg 30 min before L 12 mg/kg + B 3 mg/kg, 60 min after L + B
[10] = brain, R 30.0 mg/kg 30 min before L 12 mg/kg + B 3 mg/kg, 60 min after L + B
[11] = kidney, R 0.3 mg/kg 30 min before L 12 mg/kg + B 3 mg/kg, 60 min after L + B
[12] = kidney, R 1.0 mg/kg 30 min before L 12 mg/kg + B 3 mg/kg, 60 min after L + B
[13] = kidney, R 3.0 mg/kg 30 min before L 12 mg/kg + B 3 mg/kg, 60 min after L + B
[14] = kidney, R 10.0 mg/kg 30 min before L 12 mg/kg + B 3 mg/kg, 60 min after L + B
[15] = kidney, R 30.0 mg/kg 30 min before L 12 mg/kg + B 3 mg/kg, 60 min after L + B

Structure (SMILES): N[C@@H](Cc1ccc(O)c(O)c1)C(=O)O [L-DOPA, L-3,4-dihydroxyphenylalanine, reference compound]
DA level [1, 5]: 201.0 ± 19.6 ng/g | DOPAC level [1, 5]: 24.3 ± 2.4 ng/g | HVA level [1, 5]: 320.6 ± 37.4 ng/g | L-DOPA level [1, 5]: 9.6 ± 1.0 ng/g | DA level ([1]; kidney, L-DOPA 12 mg/kg alone, 60 min): 120.8 ± 27.5 ng/g | Vmax of L-DOPA apical transporter (LLC-PK1 cells; 6 min, 1 to 250 μM substrate): 3069±224 pmol mg protein/6 min | intracellular L-DOPA concentration (LLC-PK1 cells; 6 min incubation, medium concentration 0.5 μM): 4.0 ± 0.4 µM | Km (LLC-PK1 cells; read-out: Km of L-DOPA apical transporter, 6 min, 1 to 250 μM substrate): 47 ± 8 µM

Structure (SMILES): CNC(C)(C)C(=O)O [MeAIB, N-(methylamino)-isobutyric acid]
effect on the uptake of L-DOPA (LLC-PK1 cells; LLC-PK1 cells): failed to affect

Structure (SMILES): NC1(C(=O)O)CC2CCC1C2 (centres unmarked) [BHC, 2-aminobicyclo(2,2,1)-heptane-2-carboxylic acid]
Vmax for L-DOPA uptake in presence of inhibitor (LLC-PK1 cells; 1 mM BHC): 3783±244 pmol/mg protein/6 min | type of inhibitory effect on the accumulation of L-DOPA (LLC-PK1 cells; 1 mM BHC): competitive type | IC50 (LLC-PK1 cells; Sus scrofa, LLC-PK1, read-out: inhibition of L-DOPA uptake IC50): 407 µM | Km (LLC-PK1 cells; read-out: Km for L-DOPA uptake in presence of inhibitor, 1 mM BHC): 130 ± 19 µM

IC50 [2]: 0.07 µM
Structure (SMILES): NC(CO)C(=O)NNCc1ccc(O)c(O)c1O (centres unmarked) [benserazide]

kidney AADC activity reduction ([4]; rat kidney): 38% | liver AADC activity reduction ([4]; rat liver): 48%
Structure (SMILES): Oc1ccc(C=Cc2cc(O)cc(O)c2)cc1 [resveratrol]
effect on plasma levels of L-DOPA [3]: Increases in plasma levels of L-DOPA | DA level [1, 6]: 280.6 ± 36.6 ng/g | DOPAC level [1, 6]: 192.7 ± 13.8 ng/g | HVA level [1, 6]: 3975.5 ± 462.1 ng/g | L-DOPA level [1, 6]: 146.8 ± 14.9 ng/g | DOPAC level [1, 7]: 149.9 ± 15.8 ng/g | HVA level [1, 7]: 3068.6 ± 234.4 ng/g | L-DOPA level [1, 7]: 143.5 ± 29.1 ng/g | DA level [1, 8]: 412.5 ± 79.7 ng/g | DOPAC level [1, 8]: 221.2 ± 33.8 ng/g | HVA level [1, 8]: 3026.5 ± 337.2 ng/g | L-DOPA level [1, 8]: 180.9 ± 26.3 ng/g | DA level [1, 9]: 531.9 ± 41.6 ng/g | DOPAC level [1, 9]: 316.6 ± 20.9 ng/g | HVA level [1, 9]: 2449.5 ± 93.5 ng/g | L-DOPA level [1, 9]: 208.4 ± 21.8 ng/g | DA level [1, 10]: 403.2 ± 99.2 ng/g | DOPAC level [1, 10]: 257.8 ± 51.1 ng/g | HVA level [1, 10]: 3324.8 ± 529.4 ng/g | L-DOPA level [1, 10]: 294.0 ± 52.1 ng/g | DA level [1, 11]: 685.4 + 148.4 ng/g | DOPAC level [1, 11]: 564.2 + 183.0 ng/g | HVA level [1, 11]: 27169.4 ± 2617.0 ng/g | L-DOPA level [1, 11]: 857.4 + 103.3* ng/g | DA level [1, 12]: 622.5 + 61.5* ng/g | DOPAC level [1, 12]: 598.3 + 144.5 ng/g | HVA level [1, 12]: 26254.3 ± 3677.0 ng/g | L-DOPA level [1, 12]: 739.3 + 144.7* ng/g | DA level [1, 13]: 615.0 + 60.8* ng/g | DOPAC level [1, 13]: 420.4 + 33.3* ng/g | HVA level [1, 13]: 29094.8 ± 3342.3 ng/g | L-DOPA level [1, 13]: 1016.2 + 121.5* ng/g | DA level [1, 14]: 710.3 + 67.2* ng/g | DOPAC level [1, 14]: 476.3 + 52.8* ng/g | HVA level [1, 14]: 25779.8 ± 3941.7 ng/g | L-DOPA level [1, 14]: 949.3 + 126.4* ng/g | DA level [1, 15]: 864.4 + 316.1* ng/g | DOPAC level [1, 15]: 731.9 + 427.3 ng/g | HVA level [1, 15]: 27923.6 ± 10686.2 ng/g | L-DOPA level [1, 15]: 1198.6 + 225.1* ng/g
